Measured values reported in the supplement of paper PMC12463676, “Small-molecule dissolution of stress granules by redox modulation benefits ALS models” (Nature Chemical Biology, 2025).

Assays:
[1] = compound: NC(=O)CCCCC1CCSS1 [lipoamide]; assay: thermal stability z-score vs DMSO; higher = more thermally stabilized by treatment; conditions: HeLa, lipoamide concentration 100 µM
Experimental: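 Cellular thermal proteome profiling in HeLa cells. Cells were treated with 100 µM lipoamide for 1 h, with or without 1 mM arsenate for a further 1 h, then heated to ten temperatures (37-66.3 °C), and soluble protein was quantified by TMT mass spectrometry relative to 0.1% DMSO controls. The thermal stability score (sum of log2 fold changes minus the abundance score) was transformed to a z-score; mean of n = 3 experiments.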

[2] = compound: O=[As]([O-])(O)O.[K+] [potassium arsenate]; assay: as above; conditions: HeLa; arsenate concentration 1 mM
Experimental: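 Cellular thermal proteome profiling in HeLa cells treated with 1 mM arsenate for 1 h (DMSO pretreatment), heated to ten temperatures (37-66.3 °C). Soluble protein was quantified by TMT mass spectrometry relative to DMSO controls; the thermal stability score was transformed to a z-score; mean of n = 3 experiments.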

[3] = arsenate co-treatment: 1 mM arsenate 1 h
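Note: each temperature applied for 3 min, abundance score taken as mean log2 fold change at the two lowest temperatures, z-score obtained by mean subtraction and division by SD.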

Chain of UniProt Q10471 (Q10471 whole entry): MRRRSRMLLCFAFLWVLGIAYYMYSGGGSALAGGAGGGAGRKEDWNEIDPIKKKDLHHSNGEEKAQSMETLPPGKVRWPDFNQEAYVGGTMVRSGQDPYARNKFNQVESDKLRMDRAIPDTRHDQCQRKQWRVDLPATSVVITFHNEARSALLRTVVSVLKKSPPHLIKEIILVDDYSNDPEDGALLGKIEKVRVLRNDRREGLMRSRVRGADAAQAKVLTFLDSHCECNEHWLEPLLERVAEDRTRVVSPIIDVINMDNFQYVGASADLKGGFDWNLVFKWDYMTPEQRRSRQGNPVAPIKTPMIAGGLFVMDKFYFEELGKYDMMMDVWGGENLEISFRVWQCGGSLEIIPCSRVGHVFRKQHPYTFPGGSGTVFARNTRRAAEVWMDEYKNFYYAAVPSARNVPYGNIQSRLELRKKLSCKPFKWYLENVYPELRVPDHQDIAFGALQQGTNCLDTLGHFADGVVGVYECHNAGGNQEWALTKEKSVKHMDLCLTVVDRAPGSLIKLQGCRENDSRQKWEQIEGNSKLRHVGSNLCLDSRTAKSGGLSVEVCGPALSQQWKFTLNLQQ
Chain of UniProt Q14019 (Q14019 whole entry): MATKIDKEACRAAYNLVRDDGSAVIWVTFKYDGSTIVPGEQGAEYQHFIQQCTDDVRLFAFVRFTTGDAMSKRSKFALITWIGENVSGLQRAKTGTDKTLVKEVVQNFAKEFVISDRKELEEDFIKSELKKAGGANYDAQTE
Chain of UniProt Q16543 (Q16543 whole entry): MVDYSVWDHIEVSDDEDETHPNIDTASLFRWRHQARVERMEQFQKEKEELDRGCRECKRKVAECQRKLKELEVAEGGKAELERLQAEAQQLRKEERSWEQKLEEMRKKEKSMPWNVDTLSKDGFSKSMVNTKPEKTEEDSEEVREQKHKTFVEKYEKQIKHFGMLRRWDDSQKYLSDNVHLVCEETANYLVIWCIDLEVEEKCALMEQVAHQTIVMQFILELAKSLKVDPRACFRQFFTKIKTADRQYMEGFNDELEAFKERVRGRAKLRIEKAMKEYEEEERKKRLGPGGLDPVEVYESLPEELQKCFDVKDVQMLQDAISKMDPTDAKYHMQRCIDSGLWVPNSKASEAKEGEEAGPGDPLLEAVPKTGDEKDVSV
Chain of UniProt Q9H3C7 (Q9H3C7 whole entry): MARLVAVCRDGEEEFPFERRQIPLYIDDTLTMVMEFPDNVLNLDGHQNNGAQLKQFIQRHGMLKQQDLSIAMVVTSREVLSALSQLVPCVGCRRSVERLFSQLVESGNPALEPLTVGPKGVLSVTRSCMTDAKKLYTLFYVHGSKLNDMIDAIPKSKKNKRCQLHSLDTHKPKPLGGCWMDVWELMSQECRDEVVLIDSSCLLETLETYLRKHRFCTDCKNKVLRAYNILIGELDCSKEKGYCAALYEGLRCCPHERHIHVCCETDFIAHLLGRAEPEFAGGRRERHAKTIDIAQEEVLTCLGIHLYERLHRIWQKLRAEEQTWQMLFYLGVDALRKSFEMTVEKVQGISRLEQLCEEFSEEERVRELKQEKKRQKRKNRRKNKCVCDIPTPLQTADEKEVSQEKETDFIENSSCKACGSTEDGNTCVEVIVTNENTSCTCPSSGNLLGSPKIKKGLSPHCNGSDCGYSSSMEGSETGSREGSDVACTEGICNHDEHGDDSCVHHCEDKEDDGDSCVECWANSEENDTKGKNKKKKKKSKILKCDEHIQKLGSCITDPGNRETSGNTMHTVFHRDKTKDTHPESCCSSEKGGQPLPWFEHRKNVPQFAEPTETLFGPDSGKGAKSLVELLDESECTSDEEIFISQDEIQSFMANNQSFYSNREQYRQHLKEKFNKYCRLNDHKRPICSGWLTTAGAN
Chain of UniProt Q9BR61 (Q9BR61 whole entry): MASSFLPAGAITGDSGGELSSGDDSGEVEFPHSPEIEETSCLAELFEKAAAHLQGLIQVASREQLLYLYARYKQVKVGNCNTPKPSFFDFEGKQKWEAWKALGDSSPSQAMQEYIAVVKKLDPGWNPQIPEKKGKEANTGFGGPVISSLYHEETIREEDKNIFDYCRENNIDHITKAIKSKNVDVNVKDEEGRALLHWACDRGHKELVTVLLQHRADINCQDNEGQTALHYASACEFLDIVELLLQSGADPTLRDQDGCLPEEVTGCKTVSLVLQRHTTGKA
Chain of UniProt Q5QJE6 (Q5QJE6 whole entry): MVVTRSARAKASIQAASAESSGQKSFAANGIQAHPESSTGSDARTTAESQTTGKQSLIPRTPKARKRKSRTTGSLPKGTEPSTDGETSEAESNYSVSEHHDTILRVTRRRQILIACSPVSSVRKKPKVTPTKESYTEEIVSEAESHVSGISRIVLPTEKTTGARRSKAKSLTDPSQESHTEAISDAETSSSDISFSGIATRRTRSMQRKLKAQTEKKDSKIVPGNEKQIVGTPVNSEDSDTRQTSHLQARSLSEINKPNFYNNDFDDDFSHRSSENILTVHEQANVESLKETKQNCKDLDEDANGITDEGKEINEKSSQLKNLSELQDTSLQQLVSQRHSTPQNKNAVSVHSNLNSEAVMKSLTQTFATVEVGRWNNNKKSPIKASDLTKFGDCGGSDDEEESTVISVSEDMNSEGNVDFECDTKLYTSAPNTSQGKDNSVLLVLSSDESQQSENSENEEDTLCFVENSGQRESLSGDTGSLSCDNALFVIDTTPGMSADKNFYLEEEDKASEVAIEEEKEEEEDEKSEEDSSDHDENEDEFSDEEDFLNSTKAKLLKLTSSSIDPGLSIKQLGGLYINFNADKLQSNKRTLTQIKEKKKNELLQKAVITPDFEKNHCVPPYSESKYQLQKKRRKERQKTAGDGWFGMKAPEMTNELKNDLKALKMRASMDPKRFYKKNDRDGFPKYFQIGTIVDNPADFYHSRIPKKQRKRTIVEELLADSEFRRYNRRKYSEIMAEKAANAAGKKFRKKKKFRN
Chain of UniProt Q9C037 (Q9C037 whole entry): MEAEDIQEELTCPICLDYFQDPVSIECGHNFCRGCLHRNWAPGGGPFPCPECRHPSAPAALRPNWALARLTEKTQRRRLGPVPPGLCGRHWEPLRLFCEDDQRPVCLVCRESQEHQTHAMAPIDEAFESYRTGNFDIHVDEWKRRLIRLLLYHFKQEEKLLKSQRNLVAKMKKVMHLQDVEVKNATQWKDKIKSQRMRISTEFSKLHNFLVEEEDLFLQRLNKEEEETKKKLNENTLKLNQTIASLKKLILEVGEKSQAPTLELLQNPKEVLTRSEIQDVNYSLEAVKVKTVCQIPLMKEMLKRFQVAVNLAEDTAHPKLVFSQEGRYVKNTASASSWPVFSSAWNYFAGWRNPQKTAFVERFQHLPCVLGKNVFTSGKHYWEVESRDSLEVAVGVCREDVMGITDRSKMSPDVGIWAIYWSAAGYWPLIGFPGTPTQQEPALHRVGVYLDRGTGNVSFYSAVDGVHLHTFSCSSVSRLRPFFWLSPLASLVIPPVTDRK
Chain of UniProt Q8IWR0 (Q8IWR0 whole entry): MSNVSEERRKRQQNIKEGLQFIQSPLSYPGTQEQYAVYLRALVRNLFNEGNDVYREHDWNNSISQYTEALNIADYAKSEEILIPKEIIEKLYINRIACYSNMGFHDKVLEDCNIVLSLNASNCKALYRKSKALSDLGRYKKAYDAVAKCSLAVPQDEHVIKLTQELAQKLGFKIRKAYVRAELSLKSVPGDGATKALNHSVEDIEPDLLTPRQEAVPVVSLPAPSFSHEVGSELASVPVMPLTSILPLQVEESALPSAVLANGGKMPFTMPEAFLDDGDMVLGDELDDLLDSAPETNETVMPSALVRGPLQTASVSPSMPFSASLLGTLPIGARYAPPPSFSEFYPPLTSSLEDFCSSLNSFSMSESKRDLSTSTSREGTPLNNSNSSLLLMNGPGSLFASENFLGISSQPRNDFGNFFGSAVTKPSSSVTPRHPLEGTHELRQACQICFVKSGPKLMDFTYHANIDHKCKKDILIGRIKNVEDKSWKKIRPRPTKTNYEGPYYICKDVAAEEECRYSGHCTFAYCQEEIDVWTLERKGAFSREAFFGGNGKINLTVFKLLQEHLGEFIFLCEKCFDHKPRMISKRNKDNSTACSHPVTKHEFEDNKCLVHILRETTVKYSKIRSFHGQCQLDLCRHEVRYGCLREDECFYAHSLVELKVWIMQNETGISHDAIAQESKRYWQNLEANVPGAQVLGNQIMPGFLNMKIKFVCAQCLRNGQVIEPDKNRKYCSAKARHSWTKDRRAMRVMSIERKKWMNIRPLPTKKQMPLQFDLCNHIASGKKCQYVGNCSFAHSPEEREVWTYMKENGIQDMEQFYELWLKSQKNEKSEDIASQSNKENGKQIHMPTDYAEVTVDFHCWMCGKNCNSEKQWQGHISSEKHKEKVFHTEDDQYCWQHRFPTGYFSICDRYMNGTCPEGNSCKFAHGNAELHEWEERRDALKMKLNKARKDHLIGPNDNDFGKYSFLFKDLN
Chain of UniProt Q9BVC3 (Q9BVC3 whole entry): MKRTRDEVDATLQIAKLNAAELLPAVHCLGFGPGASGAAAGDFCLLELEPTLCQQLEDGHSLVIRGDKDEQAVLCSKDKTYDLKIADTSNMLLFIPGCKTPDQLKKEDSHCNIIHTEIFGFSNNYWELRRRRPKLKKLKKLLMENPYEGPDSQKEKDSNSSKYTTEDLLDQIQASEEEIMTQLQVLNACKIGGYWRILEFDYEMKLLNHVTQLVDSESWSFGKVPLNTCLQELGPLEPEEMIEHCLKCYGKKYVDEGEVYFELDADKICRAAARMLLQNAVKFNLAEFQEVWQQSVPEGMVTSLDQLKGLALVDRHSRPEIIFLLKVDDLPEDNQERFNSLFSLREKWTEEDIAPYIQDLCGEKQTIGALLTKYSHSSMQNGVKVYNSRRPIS

Target	thermal stability z-score [1, 3]	thermal stability z-score ([1]; arsenate co-treatment: none)	thermal stability z-score [2]
QRICH1 (UniProt Q2TAL8)	-0.132	-0.0369	0.0998
EXOSC4 (UniProt Q9NPD3)	0.821	-0.104	-0.872
ADCY9 (UniProt O60503)	0.368	0.853	0.26
ATP2B1 (UniProt P20020)	0.446	0.697	-0.146
RTN4 (UniProt Q9NQC3)	0.244	0.711	0.413
N4BP1 (UniProt O75113)	0.103	0.0755	-0.0968
SMG9 (UniProt Q9H0W8)	-0.596	-0.49	-0.274
DCTN5 (UniProt Q9BTE1)	-0.414	-0.0773	-0.329
TBRG4 (UniProt Q969Z0)	-0.625	-0.116	0.462
OSBP (UniProt P22059)	0.983	0.414	-1.62
RNASEH2A (UniProt O75792)	0.0654	0.493	0.138
AFTPH (UniProt Q6ULP2)	-0.18	0.15	0.102
NXN (UniProt Q6DKJ4)	0.0765	0.152	0.314
MRPL17 (UniProt Q9NRX2)	0.0551	0.00699	-0.206
MIOS (UniProt Q9NXC5)	0.0112	0.085	-0.469
GHDC (UniProt Q8N2G8)	-0.848	0.229	0.229
DENND5B (UniProt Q6ZUT9)	0.0786	0.0385	0.148
GGNBP2 (UniProt Q9H3C7)	0.141	0.168	-1.84
COTL1 (UniProt Q14019)	0.575	1.02	0.699
GCC2 (UniProt Q8IWJ2)	-0.88	-0.098	0.827
TRIM4 (UniProt Q9C037)	-0.218	0.0313	-0.143
PHF3 (UniProt Q92576)	1.05	0.76	-0.848
SELK (UniProt Q9Y6D0)	0.406	-0.759	0.22
EIF4E (UniProt P06730)	0.236	-0.135	0.461

Target	thermal stability z-score [1, 3]	thermal stability z-score ([1]; arsenate co-treatment: none)	thermal stability z-score [2]
MIB1 (UniProt Q86YT6)	-0.621	-0.586	-1.05
EIF2B2 (UniProt P49770)	1.07	0.55	0.643
CBX1 (UniProt P83916)	0.402	0.214	0.0814
PGGT1B (UniProt P53609)	-0.242	0.0735	0.268
PRKACB (UniProt P22694)	-0.58	-0.36	0.18
FAT1 (UniProt Q14517)	-1.6	-1.48	0.0899
GALNT2 (UniProt Q10471)	-1.83	-1.16	0.25
VRK1 (UniProt Q99986)	0.263	0.423	-0.267
IMPA2 (UniProt O14732)	0.737	0.182	-0.728
BCL7C (UniProt Q8WUZ0)	0.0654	0.0122	0.0252
COBLL1 (UniProt Q53SF7)	0.248	0.43	-0.608
EPS15L1 (UniProt Q9UBC2)	0.0401	0.0523	0.4
HNRNPA2B1 (UniProt P22626)	0.93	0.512	0.0566
FAM105A (UniProt Q9NUU6)	-0.00141	-0.0135	0.337
RUVBL2 (UniProt Q9Y230)	-0.408	-0.0917	-0.75
DNTTIP2 (UniProt Q5QJE6)	0.201	0.12	0.279
NUDT9 (UniProt Q9BW91)	-0.674	-0.346	0.0652
SRGAP2 (UniProt O75044)	-0.272	-0.287	0.309
TDG (UniProt Q13569)	-0.0217	-0.0438	-0.322
MRS2 (UniProt Q9HD23)	0.937	-0.861	-1.27
TMEM41B (UniProt Q5BJD5)	0.259	0.188	-0.153
SPRYD7 (UniProt Q5W111)	0.397	0.0188	-0.339
F11R (UniProt Q9Y624)	0.865	0.653	0.151
DNMBP (UniProt Q6XZF7)	-0.142	-0.138	0.897

Target	thermal stability z-score [1, 3]	thermal stability z-score ([1]; arsenate co-treatment: none)	thermal stability z-score [2]
RPL18A (UniProt Q02543)	0.628	0.246	-0.333
RPL13A (UniProt P40429)	0.328	0.16	-0.496
RECQL5 (UniProt O94762)	-0.0312	0.0721	-0.222
DLD (UniProt P09622)	0.662	1.04	-0.681
SMARCA4 (UniProt P51532)	0.212	0.272	-0.673
HEATR3 (UniProt Q7Z4Q2)	-0.189	0.0325	0.285
CCT4 (UniProt P50991)	-0.0959	-0.205	-0.223
AP1S1 (UniProt P61966)	-0.264	-0.339	0.802
SUN2 (UniProt Q9UH99)	-1.43	-1.36	-0.0506
CLASRP (UniProt Q8N2M8)	-0.693	-0.133	0.14
CDC37 (UniProt Q16543)	0.928	0.616	0.222
PMF1 (UniProt Q6P1K2)	0.0314	-0.0395	0.367
DSCC1 (UniProt Q9BVC3)	0.0551	0.0324	-0.199
FBXO45 (UniProt P0C2W1)	0.369	0.292	0.229
CBX3 (UniProt Q13185)	0.366	0.43	1.76
SCYL1 (UniProt Q96KG9)	-0.269	-0.198	-0.278
ACBD6 (UniProt Q9BR61)	-1.02	-0.756	-0.675
ZC3H7A (UniProt Q8IWR0)	-0.124	-0.0131	-0.613
METTL7A (UniProt Q9H8H3)	2.84	2.54	0.632
BASP1 (UniProt P80723)	0.861	0.592	-0.142
GPN3 (UniProt Q9UHW5)	-0.0577	-0.282	-0.524
HAUS3 (UniProt Q68CZ6)	-0.112	-0.176	-0.102
SMIM12 (UniProt Q96EX1)	-0.371	0.35	0.0454
